Literature values, collected in patent publication US12485133B2, “Inhaled ivermectin” (Hovione Scientia Limited, priority 2021, dated 2025).

Legend:
[1] = not given; remark: listed apart in the source
[2] = not given; remark: listed apart in the source
SARS-Cov-2 = conditions: incubated with 5 μM Ivermectin

Question: Which “solubility in non-polar aprotic solvents such as hexane” value (hexane) does the source give for Ivermectin here?
Answer: The value was “completely insoluble”.

Question: And the “solubility in methanol and 95% ethanol” value (methanol, 95% ethanol)?
Answer: Its value is “freely soluble”.

Question: What about the solubility in water (water) of the same substance?
Answer: The solubility in water was under 1 µg/mL.

Question: And the “stability under acidic and basic aqueous conditions” value ([1]; acidic and basic aqueous conditions)?
Answer: The value was “degrades”.

Question: And the “optimal pH for stability” value ([1]; aqueous conditions)?
Answer: The value was 6.3.

Question: What about the “solid state stability (degradation in drug substance batches)” value ([1]; solid state, 37° C. for 1.5 years) of the same substance?
Answer: Its value is “no degradation observed”.

Question: What about the “Log P” value [2] of the same substance?
Answer: The value was 4.4.

Question: What about the “time to eliminate the virus from supernatant and infected cells” value (SARS-Cov-2) of the same substance?
Answer: The value was at most 48 h.
